# Experimental data as given in US20260159618A1, “COMPOUND, POLYMERIZABLE COMPOSITION, POLYMER, HOLOGRAPHIC RECORDING MEDIUM, OPTICAL MATERIAL, AND OPTICAL COMPONENT” (Mitsubishi Chemical Corporation, priority 2022, published 2026).
# Read-outs that look alike come from different tables or passages of the source.
# Legend:
# [1] = Refractive index measurement of polymerizable monomer (Kalnew precision refractometer); assay type: physicochemical; set-up: key to Refractive Index (dash symbol): ⊚: 0.019 or more; ◯: 0.015 or more and less than 0.019; Δ: 0.010 or more and less than 0.015; x: less than 0.010; —: impossible to measure; details: for Refractive Index: 23° C., helium lamp d-line (587.6 nm), calculated for 100% by mass from calibration curve of 10 and 20% by mass test solutions; for Refractive Index (dash symbol): sample not suitable for refractive index measurement
# Method: The refractive index of the compound M-1 was measured using the following method. The refractive indexes of the polymerizable monomers produced in the Examples and Comparative Examples were also measured using the same method.
# A test solution was prepared by dissolving the sample in a mixed solution of 3-phenoxybenzyl acrylate and trimethylolpropane trimethacrylate in a mass ratio of 4:1 to obtain the specified concentration.
# Two types of test solutions were prepared, with sample concentrations of 10% by mass and 20% by mass.
# The refractive index of each test solution was measured using a Kalnew precision refractometer (manufactured by Shimadzu Corporation, product name: KPR-2000). The temperature of the test solution was 23° C., and the measurement wavelength was helium lamp d-line (587.6 nm). Based on the measurement results, a calibration curve showing the correlation between sample concentration and refractive index was created, and the refractive index when the sample concentration was 100% by mass was calculated from the obtained calibration curve, and was taken as the refractive index of the sample.
# [2] = Solubility in Duranate TSS-100, visual observation; assay type: physicochemical; details: 0.63 g monomer dissolved in 2.53 g Duranate TSS-100, visually observed
# Method: (§1) When 0.63 g of polymerizable monomers M-1 to M-11 and R-1 to R-4 were dissolved in 2.53 g of Duranate (registered trademark) TSS-100, the state of the solution was visually observed and the solubility was evaluated as ∘ (completely dissolved), Δ (cloudy), or x (solid remaining in solution). In addition, the state of each solution was visually observed when it was stored at room temperature for 10 days and the storage stability was evaluated as ∘ (completely dissolved), Δ (cloudy), or x (solid remaining in solution).
# [3] = Storage stability of the TSS-100 solution, visual observation; assay type: physicochemical; set-up: key: ∘: completely dissolved; Δ: cloudy; x: solid remaining in solution; details: solution in Duranate TSS-100 stored at room temperature for 10 days, visually observed
# Method: as §1
# [4] = prior-art compounds, background art; cited from earlier work
Refractive Index (dash symbol) [1],SMILES,Refractive Index [1],Solubility [2],Storage Stability [3],Refractive Index [4]
,C=CC(=O)OCCCOc1c(-c2cc3ccccc3c3ccccc23)cc(-c2cc3ccccc3c3ccccc23)cc1-c1cc2ccccc2c2ccccc12 [Compound M-11],1.7316,◯,◯,
,C=C(C)C(=O)OCCNC(=O)Oc1c(-c2cccc3c2sc2ccccc23)cc(-c2cccc3c2sc2ccccc23)cc1-c1cccc2c1sc1ccccc12 [Compound M-1],1.6818,◯,◯,
,"C=CC(=O)OCCOc1ccc(C2(c3ccc(OCCOC(=O)C=C)cc3)c3ccccc3-c3ccccc32)cc1 [9,9-bis[4-(2-acryloyloxyethoxy)phenyl]fluorene]",,,,about 1.62
,C=CC(=O)OCCNC(=O)Oc1c(-c2cccc3c2sc2ccccc23)cc(-c2cccc3c2sc2ccccc23)cc1-c1cccc2c1sc1ccccc12 [Compound M-3],1.6891,◯,◯,
,C=CC(=O)OCCNC(=O)Oc1c(-c2cc3ccccc3c3ccccc23)cc(-c2cc3ccccc3c3ccccc23)cc1-c1cc2ccccc2c2ccccc12 [Compound M-4],1.6894,◯,◯,
,"C=CC(=O)Oc1c(-c2cccc3c2sc2ccccc23)cc(-c2cccc3c2sc2ccccc23)cc1-c1cccc2c1sc1ccccc12 [Compound R-2, reference compound]",1.7056,,Δ,
,C=C(C)C(=O)OCCOCCNC(=O)Oc1c(-c2cc3ccccc3c3ccccc23)cc(-c2cc3ccccc3c3ccccc23)cc1-c1cc2ccccc2c2ccccc12 [Compound M-6],1.7013,◯,◯,
,C=C(C)C(=O)OCCOCCNC(=O)OCCOc1c(-c2cc3ccccc3c3ccccc23)cc(-c2cc3ccccc3c3ccccc23)cc1-c1cc2ccccc2c2ccccc12 [Compound M-9],1.6975,◯,◯,
—,"C=CC(=O)OCCOc1c(-c2cccc3c2sc2ccccc23)cc(-c2cccc3c2sc2ccccc23)cc1-c1cccc2c1sc1ccccc12 [Compound R-3, reference compound]",,,,
,"C=CC(=O)OCCNC(=O)Oc1ccc(-c2cccc3c2sc2ccccc23)cc1-c1cccc2c1sc1ccccc12 [Compound R-1, reference compound]",1.6762,,Δ,
,C=CC(=O)OCCNC(=O)OCCOc1c(-c2cc3ccccc3c3ccccc23)cc(-c2cc3ccccc3c3ccccc23)cc1-c1cc2ccccc2c2ccccc12 [Compound M-7],1.7104,◯,◯,
—,"C=CC(=O)OCCCCOc1c(-c2cccc3c2sc2ccccc23)cc(-c2cccc3c2sc2ccccc23)cc1-c1cccc2c1sc1ccccc12 [Compound R-4, reference compound]",,,,
,C=C(C)C(=O)OCCNC(=O)OCCOc1c(-c2cc3ccccc3c3ccccc23)cc(-c2cc3ccccc3c3ccccc23)cc1-c1cc2ccccc2c2ccccc12 [Compound M-8],1.7042,◯,◯,
,C=C(C)C(=O)OCCNC(=O)Oc1c(-c2cc3ccccc3c3ccccc23)cc(-c2cc3ccccc3c3ccccc23)cc1-c1cc2ccccc2c2ccccc12 [Compound M-2],1.6898,◯,◯,
,C=CC(=O)OCCOc1c(-c2cc3ccccc3c3ccccc23)cc(-c2cc3ccccc3c3ccccc23)cc1-c1cc2ccccc2c2ccccc12 [Compound M-10],1.7323,◯,◯,
,C=C(C)C(=O)OCCNC(=O)Oc1c(-c2ccc3ccccc3c2)cc(-c2ccc3ccccc3c2)cc1-c1ccc2ccccc2c1 [Compound M-5],1.6798,◯,◯,
